# Experimental data reported in US20100249234A1, “METHODS OF REDUCING VIRULENCE IN BACTERIA” (UWM RESEARCH FOUNDATION, INC., priority 2007, published 2010).
# Assays:
# Assay type in all cases: cell-based, Dickeya dadantii 3937 (Ech3937)
# hrpN mRNA = test: qRT-PCR relative mRNA level of hrpN; settings: 0.1 mM PCA, P=0.001 (FIG. 14)
# Experimental: (§1) Bacterial strains were grown in MM. Total RNA from the bacterial cells was isolated by using the TRI reagent method (Sigma, Mo.) and treated with Turbo DNA-free DNase kits (Ambion, TX) as described (Peng et al., 2006). An iScript cDNA Synthesis Kit (Bio-Rad, CA) was used to synthesize cDNA from 0.5 μg of treated total RNA. The Real Master Mix (Eppendorf, Westbury, N.Y.) was used for qRT-PCR reaction to quantify the cDNA level of target genes in different samples. The rplU was used as the endogenous control for data analysis. qRT-PCR data were analyzed using Relative Expression Software Tool as described (Pfaffl, M. W., Horgan, G. W., and Dempfle, L. (2002) Relative expression software tool (REST) for group-wise comparison and statistical analysis of relative expression results in real-time PCR. Nucleic Acids Res 30:e36.).
# pPROBE-AT vector = test: GFP expression control base level, pPROBE-AT vector, flow cytometry (FACS)
# Experimental: (§2) FACS analysis of promoter activity of dspE, hrpA, hrpL, hrpN, and hrpS was carried out as described (Peng et al., 2006). Briefly, the wild-type Ech3937 and the mutant strains carrying the promoter reporter plasmid were grown on LB broth at 28° C. overnight and transferred to appropriate media. For FACS analysis, samples were collected by centrifugation, washed with 1× phosphate buffer saline (PBS) at 13,000 rpm for 1 min, and re-suspended in 1×PBS to ca 10^6 CFU/ml prior to being run in a FACS Calibur flow cytometer (BD Biosciences, CA). Three replicates were performed for each treatment.
# (§3) Since OCA and TCA induced the expression of hrpN, the effect of these two phenolic compounds on the expression of hrpA, hrpL, and hrpS was investigated further. […] GFP intensity was determined on gated populations of bacterial cells by flow cytometry and analyzed with the Cell Quest software (BD Biosciences, San Jose, Calif.). The lines labeled “1” stand for the GFP expression control base level of the Ech3937 containing pPROBE-AT vector; lines labeled “2” stand for the promoter activity of hrpS, hrpL, hrpA and hrpN in Ech3937 in MM; lines labeled “3” stand for the promoter activity of Ech3937 in MM supplemented with 0.1 mM OCA; lines labeled “4” stand for the promoter activity of hrpL mutant WPP96 in MM; lines labeled “5” stand for the promoter activity of hrpL mutant WPP96 in MM supplemented with 0.1 mM OCA. Values are representative of at least two experiments. […] Compared with MM alone, the average GFP fluorescence intensity of bacterial cells of Ech3937 (phrpA) was doubled when 0.1 mM of OCA and TCA were added to the medium (Table 4; FIG. 3). […] The mrp, whose protein product has an ATPase conserved domain (2e-06), was used as a reference gene in this study.
# hrpS promoter = hrpS promoter activity, GFP reporter plasmid phrpS, flow cytometry (FACS)
# Experimental: as §2, §3
# HrpN = HrpN protein expression; settings: MM supplemented with 0.1 mM of PCA (FIG. 15)
# Source text: To further elucidate whether T3SS gene expression is mainly regulated through the HrpX/Y-HrpS-HrpL regulatory pathway, the expression of hrpA and hrpN in wild-type Ech3937 and hrpX (WPP67), hrpY (WPP92), hrpS (WPP90), and hrpL (WPP96) mutants in MM were examined. […] Similar expression of hrpA and hrpN was observed among WPP67, WPP92, WPP90 and WPP96 carrying phrpA and phrpN grown in MM and MM supplemented with PCA. […] Since PCA represses the expression of several T3SS genes such as hrpN, the effect of PCA on protein production of HrpN was further examined.
# Ech3937 = test: Growth of Ech3937 in MM supplemented with compound
# Source text: Phenolic compounds constitute an important class of organic substances produced by plants. The phenolic compound SA is a signaling molecule that plays a role in host defenses. OCA and TCA are the biosynthetic precursors of SA and are also reported to induce the expression of defense-related genes in plants. OCA, TCA, and SA were examined to elucidate their effects on the expression of T3SS genes. The expression of the T3SS gene hrpN was examined in MM and MM supplemented with OCA, TCA, and SA, at concentrations of 0.05, 0.1, and 0.2 mM, respectively. FIGS. 2A and 2B show the promoter activities of hrpN in Dickeya dadantii 3937 (Ech3937) grown in MM and MM supplemented with 0.05, 0.1, and 0.2 mM OCA, TCA, and SA at 12 h (FIG. 2A) and 24 h (FIG. 2B) post-inoculation. GFP intensity was determined on gated populations of bacterial cells by flow cytometry and analyzed with the Cell Quest software (BD Biosciences, San Jose, Calif.). The growth of Ech3937 in MM supplemented with different concentrations of OCA, TCA and SA was recorded. Compared with MM alone, the average GFP fluorescence intensity of bacterial cells of Ech3937 (phrpN) was increased approximately 4-fold when 0.05 mM of OCA and TCA were added to the medium (FIGS. 2A, 2B).
# The expression of the T3SS gene hrpA was further examined in MM and MM supplemented with PCA at concentrations of 0.001, 0.005, 0.01, 0.05 and 0.1 mM respectively. FIGS. 16A and 16B show the promoter activities of hrpA in Dickeya dadantii 3937 (Ech3937) grown in minimum medium (MM) and MM supplemented with different amount of p-coumaric acid (PCA) at 12 h (FIG. 16A) and 24 h (FIG. 16B) post-inoculation. GFP intensity was determined on gated populations of bacterial cells by flow cytometry and analyzed with the Cell Quest software (BD Biosciences, San Jose, Calif.). The growth of Ech3937 in MM supplemented with different concentrations of PCA was recorded. Compared with MM alone, the average GFP fluorescence intensity of bacterial cells of Ech3937 (phrpA) was reduced more than 4-fold when 0.05 and 0.1 mM of PCA were added to the medium (FIGS. 16A, 16B).
# mrp promoter = test: mrp (reference gene) promoter activity, GFP reporter pmrp, flow cytometry (FACS); settings: for GFP intensity (Mean Fluorescence Intensity) of Ech3937 (pmrp): reference gene
# Experimental: as §2, §3
# gacA mRNA = test: qRT-PCR relative mRNA level of gacA; settings: MM supplemented with OCA, p>0.5 (FIG. 4)
# Experimental: as §1
# [1] = MM + 0.1 mM PCA, 12 h (Table 10)
# [2] = MM + 0.1 mM PCA, 24 h (Table 10)
# [3] = MM + 0.1 mM compound, 12 h (Table 4)
smiles,measurement,setting,value
"O=C(O)/C=C/c1ccc(O)cc1 [PCA, p-coumaric acid]","hrpN mRNA compared with MM alone (normalized to 1), qRT-PCR",hrpN mRNA,significantly lower amount of mRNA
same,GFP intensity (Mean Fluorescence Intensity) of Ech3937 (pPROBE-AT),pPROBE-AT vector; [1],2.2 ± 0.2
same,GFP intensity (Mean Fluorescence Intensity) of Ech3937 (pPROBE-AT),"pPROBE-AT vector; MM + 0.1 mM PCA, 12 h (Table 11)",2.3 ± 0.1
same,GFP intensity (Mean Fluorescence Intensity) of Ech3937 (pPROBE-AT),pPROBE-AT vector; [2],14.0 ± 10.1
same,GFP intensity (Mean Fluorescence Intensity) of Ech3937 (pPROBE-AT),"pPROBE-AT vector; MM + 0.1 mM PCA, 24 h (Table 11)",4.9 ± 0.1
same,GFP intensity (Mean Fluorescence Intensity) of Ech3937 (phrpS),"hrpS promoter; MM + 0.1 mM PCA (MMPCA), 12 h (Table 10)",37.9 ± 1.3
same,GFP intensity (Mean Fluorescence Intensity) of Ech3937 (phrpS),"hrpS promoter; MM + 0.1 mM PCA (MMPCA), 24 h (Table 10)",43.6 ± 2.6
same,amount of HrpN protein compared with MM alone,HrpN,lower amount of HrpN
same,bacterial growth of Ech3937 in MM with PCA,"Ech3937; PCA 0.001 to 0.1 mM in MM (FIGS. 16A, 16B)",Inhibition of bacterial growth was not observed
same,GFP intensity (Mean Fluorescence Intensity) of Ech3937 (pmrp),mrp promoter; [1],124.1 ± 2.7
same,GFP intensity (Mean Fluorescence Intensity) of Ech3937 (pmrp),mrp promoter; [2],98.9 ± 1.0
"O=C(O)/C=C/c1ccccc1O [OCA, o-coumaric acid]","gacA gene expression, MM vs supplemented MM (qRT-PCR)",gacA mRNA,No significant difference
same,GFP intensity (Mean Fluorescence Intensity) of Ech3937 (pPROBE-AT),"pPROBE-AT vector; MM + 0.1 mM OCA, 6 h",2.0 ± 0
same,GFP intensity (Mean Fluorescence Intensity) of Ech3937 (pPROBE-AT),"pPROBE-AT vector; MM + 0.1 mM OCA, 12 h",2.0 ± 0
same,GFP intensity (Mean Fluorescence Intensity) of Ech3937 (pPROBE-AT),"pPROBE-AT vector; MM + 0.1 mM OCA, 24 h",1.9 ± 0
same,GFP intensity (Mean Fluorescence Intensity) of Ech3937 (pPROBE-AT),pPROBE-AT vector; [3],2.0 ± 0
same,GFP intensity of Ech3937 (phrpS) compared with MM alone,"hrpS promoter; MM + 0.1 mM compound, 12 h",slightly lower GFP intensity
same,GFP intensity (Mean Fluorescence Intensity) of Ech3937 (phrpS),hrpS promoter; [3],56 ± 1
same,GFP intensity (Mean Fluorescence Intensity) of WPP96 (phrpS),"hrpS promoter; hrpL mutant WPP96, MM + 0.1 mM compound, 12 h (Table 4)",350 ± 17
same,bacterial growth of Ech3937 in supplemented MM,"Ech3937; 0.05, 0.1 and 0.2 mM in MM (FIGS. 2A, 2B)",No reduction of bacterial growth
same,mrp expression in Ech3937 (pmrp) compared with MM,"mrp promoter; MM + 0.1 mM compound, 12 h",slightly higher mrp expression
same,GFP intensity (Mean Fluorescence Intensity) of Ech3937 (pmrp),mrp promoter; [3],97.7 ± 1.6
